In brackets after ≈: the same amount, converted by molar mass. Several values for one entry are separate records, joined by “and”; a condition that tells them apart may be missing. Equal entries are not always repeated. Entries after “also recorded” stand apart in the source; their conditions may differ.
Key:
H. pylori ZJC03 [1] = experiment: Antimicrobial susceptibility test of H. pylori ZJC03 (E-test paper); type: cell-based, Helicobacter pylori; details: clinical strain H. pylori ZJC03, E-test paper
Experimental: The sensitivity of H. pylori ZJC03 was tested by using an E-text test paper.

H. pylori ZJC03 [2] = experiment: Bacteriostasis experiment by Kirby-Bauer method (inhibition zone); type: cell-based, Helicobacter pylori; details: 6 mm filter paper disk, 72 h
Experimental: Preparation of different concentrations of phenyllactic acid: phenyllactic acid was diluted two-fold to 40 mg/mL, 20 mg/mL, 10 mg/mL, 5 mg/mL, 2.5 mg/mL and 1.25 mg/mL. The solvent used for dilution was ultrapure water.
Preparation of antimicrobial susceptibility disks: filter paper was made into circular disks with a diameter of 6 mm, subjected to autoclaved sterilization for 15 min and dried. Each circular filter paper disk was completely soaked in phenyllactic acid solutions with different concentrations, and ultrapure water was taken as a blank control to obtain antimicrobial susceptibility disks with different concentrations.
Coating and culture: 100 μL of 10^8 CFU/mL of an H. pylori bacterial solution was evenly coated on a CBA medium and dried. Then the antimicrobial susceptibility disks with different concentrations of the phenyllactic acid were pasted on a plate by tweezers, and this operation was repeated 3 times for disks of each concentration. Then the plate was placed in a culture box (containing a microaerophilic gas-generating pack inside) and statically cultured at 37° C. for 72 h. The size of an inhibition zone (mm) was measured and the measurement result was recorded.

[3] = tested on: gastric mucosal injury caused by H. pylori infection; experiment: Histopathological observation (H&E) of gastric tissues of H. pylori infected mice; type: in vivo, C57BL/6J mice; details: phenyllactic acid 0.8 mg/mL, 400 μL gavage daily 4 weeks, antibiotics 400 μL daily 10 days
Experimental: After one week of acclimation, mice were randomly divided into 4 groups: ZC, ZH, ZP and ZA. The mice in the groups were treated as follows: ZC group (15 mice): every mouse was gavaged once every other day with 400 μL of a modified Brucella broth medium for 2 weeks, followed by daily gavage of 400 μL of ultrapure water every day for 4 weeks. […] The bacterial content of the H. pylori ZJC03 suspension was 10^8 CFU/mL. After the molding, all the mice in each group were sacrificed by cervical dislocation. Gastric mucosa samples were washed with PBS and collected aseptically. The stomach contents were frozen in liquid nitrogen and subsequently stored at −80° C. for testing in Examples 8-10. The gastric mucosa was fixed in a 4% paraformaldehyde (PFA) buffer solution for 24 h at room temperature. After the treatment, the stomach tissue was embedded with an EG 1160 paraffin machine. The paraffin block was placed in an RM 2235 rotary microtome for sectioning (5 μm), and the sections were stained with hematoxylin and eosin (H&E). The stained sections were observed under a light microscope and photographed (NIKON Eclipse Ci, Japan); and the imaging system was: NIKON digital sight DS-FI2, and the photographic magnification was: 400× and 200×.

[4] = molecular target: T1, urease activity of H. pylori ZJC03 (Helicobacter pylori, UniProt P69996); experiment: Urease activity of H. pylori, phenol red method; type: biochemical; details: co-cultured 48 h
T1 construct: A total of 50 μL of the H. pylori culture solution and 50 μL of the phenyllactic acid; endogenous in cells; host or cells: Helicobacter pylori ZJC03 (live culture, 1×10^8 CFU/mL)

H. pylori ZJC03 [5] = experiment: Ultra microstructure observation (SEM, TEM, negative-stain TEM); type: cell-based, Helicobacter pylori; details: at the MIC
[6] = tested on: IFN-γ, IL-6, IL-1β and IL-10 in the stomach tissue; experiment: RT-qPCR of inflammatory factors in gastric mucosal tissues of H. pylori infected mice; type: in vivo, C57BL/6J mice; details: gavage
Experimental: After one week of acclimation, mice were randomly divided into 4 groups: ZC, ZH, ZP and ZA. The mice in the groups were treated as follows: […] After the molding, all the mice in each group were sacrificed by cervical dislocation. Gastric mucosa samples were washed with PBS and collected aseptically. The stomach contents were frozen in liquid nitrogen and subsequently stored at −80° C. for testing in Examples 8-10. The quantitative analysis of IFN-γ, IL-6, IL-1β and IL-10 in the stomach tissue was performed by RT-qPCR. Total RNA (100-500 ng/μL) was isolated from mouse stomach tissue samples according to the instructions of an RNA extraction kit, followed by reverse transcription of RNA into cDNA using the kit. The levels of each gene were normalized using GAPDH as an internal control. The RT-qPCR assay was performed according to the following thermal cycle program: pre-denaturation at 95° C. for 10 min, 40 cycles of 95° C. for 15 s and 60° C. for 30 s, and the melting curve was from 60° C. to 95° C. with a temperature increase of 0.3° C. every 15 s and the fluorescence signal was collected once, and a 2^−ΔΔCt method was used for calculation.

H. pylori [7] = experiment: Effects of sub-inhibitory concentrations on growth curves of H. pylori; type: cell-based, Helicobacter pylori
Experimental: According to the determination of the bacteriostatic ability, the effects of phenyllactic acid on growth curves were analyzed. An H. pylori suspension cultured overnight was inoculated into a sterilized modified Brucella broth medium. The concentration was adjusted such that the initial inoculum size of the bacteria was 1×10^8 CFU/mL. The phenyllactic acid was added at the final concentrations of ⅛ MIC, ¼ MIC, ½ MIC and MIC, and no drug was added to the control group. The mixed solution was placed in a microaerobic environment at 37° C. for 120 h, the OD560 value was determined every other 12 h, and the changes of the growth curves at sub-inhibitory concentrations were observed and recorded.

mouse gastric flora = experiment: Gastric microbiota analysis by 16S rRNA gene sequencing in H. pylori infected mice; type: in vivo, C57BL/6J mice
Experimental: After one week of acclimation, mice were randomly divided into 4 groups: ZC, ZH, ZP and ZA. The mice in the groups were treated as follows:
ZP group (45 mice): every mouse was gavaged once every other day with 400 μL of the H. pylori ZJC03 bacterial suspension for 2 weeks, followed by daily gavage of 400 μL of phenyllactic acid (at the concentrations of 0.16 mg/mL, 0.32 mg/mL and 0.8 mg/mL respectively, and 15 mice for each concentration) every day for 4 weeks.
ZA group (15 mice): every mouse was gavaged once every other day with 400 μL of the H. pylori ZJC03 bacterial suspension for 2 weeks, followed by 10 days of gavage of combined antibiotics (at the dose of 400 μL per mouse per day), and after 10 days, each mouse continued to be gavaged with 400 μL of ultrapure water for 18 days.
After the molding, all the mice in each group were sacrificed by cervical dislocation. Gastric mucosa samples were washed with PBS and collected aseptically. The stomach contents were frozen in liquid nitrogen and subsequently stored at −80° C. for testing in Examples 8-10.
DNA samples were extracted from the gastric mucosa by a CTAB method, and the quality of DNA extraction was detected by agarose gel electrophoresis, and at the same time, the DNA was quantified by an ultraviolet spectrophotometer. The hypervariable regions V3-V4 of 16S rRNA of bacteria were amplified by using universal primers (341F and 805R). Paired-end sequencing of 2×250 bp was performed using a NovaSeq 6000 sequencer, and DNA extraction and sequencing were completed in the LC-Bio Technologies Co. Ltd.

H. pylori [8] = experiment: Determination of minimum inhibitory concentration (agar dilution method); type: cell-based, Helicobacter pylori; details: 37° C., 48 h, microaerobic
[9] = gastric mucosa, ZP = 0.8 mg/mL phenyllactic acid, ZA = antibiotic treatment

T1 sequence (P69996 whole entry): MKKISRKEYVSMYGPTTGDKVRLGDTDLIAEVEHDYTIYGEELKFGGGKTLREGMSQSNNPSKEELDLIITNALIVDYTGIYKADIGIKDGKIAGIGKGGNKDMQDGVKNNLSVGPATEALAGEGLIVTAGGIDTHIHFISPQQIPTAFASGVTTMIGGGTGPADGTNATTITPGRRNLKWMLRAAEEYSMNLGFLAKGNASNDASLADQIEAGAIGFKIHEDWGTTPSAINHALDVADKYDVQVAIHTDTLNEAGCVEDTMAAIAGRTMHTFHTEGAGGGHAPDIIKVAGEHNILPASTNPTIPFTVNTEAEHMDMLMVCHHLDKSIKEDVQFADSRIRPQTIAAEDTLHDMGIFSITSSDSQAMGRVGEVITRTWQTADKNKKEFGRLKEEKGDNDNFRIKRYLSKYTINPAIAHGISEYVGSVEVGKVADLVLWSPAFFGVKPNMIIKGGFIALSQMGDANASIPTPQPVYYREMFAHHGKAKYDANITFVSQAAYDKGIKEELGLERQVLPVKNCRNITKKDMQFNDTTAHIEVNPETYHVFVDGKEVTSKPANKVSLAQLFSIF
T1 sequence (P14916 whole entry, further chain): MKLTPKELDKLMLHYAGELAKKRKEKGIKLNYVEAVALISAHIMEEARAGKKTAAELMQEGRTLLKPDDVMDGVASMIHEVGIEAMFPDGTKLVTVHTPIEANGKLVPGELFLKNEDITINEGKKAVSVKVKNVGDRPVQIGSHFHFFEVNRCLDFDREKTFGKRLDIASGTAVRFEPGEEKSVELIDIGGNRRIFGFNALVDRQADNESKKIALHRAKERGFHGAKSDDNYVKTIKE

## CC1(C)S[C@@H]2[C@H](NC(=O)[C@H](N)c3ccc(O)cc3)C(=O)N2[C@H]1C(=O)O [Amoxicillin]
H. pylori ZJC03 [1]
  Sensitivity of H. pylori ZJC03 to antibiotics: 0.016 µg/mL

## CC[C@H]1OC(=O)[C@H](C)[C@@H](O[C@H]2C[C@@](C)(OC)[C@@H](O)[C@H](C)O2)[C@H](C)[C@@H](O[C@@H]2O[C@H](C)C[C@H](N(C)C)[C@H]2O)[C@](C)(OC)C[C@@H](C)C(=O)[C@H](C)[C@@H](O)[C@]1(C)O [Clarithromycin]
H. pylori ZJC03 [1]
  Sensitivity of H. pylori ZJC03 to antibiotics: 0.8 µg/mL

## Cc1ncc([N+](=O)[O-])n1CCO [Metronidazole]
H. pylori ZJC03 [1]
  Sensitivity of H. pylori ZJC03 to antibiotics: insensitive

## CN(C)[C@@H]1C(O)=C(C(N)=O)C(=O)[C@@]2(O)C(O)=C3C(=O)c4c(O)cccc4[C@@](C)(O)[C@H]3C[C@@H]12 [Tetracycline]
H. pylori ZJC03 [1]
  Sensitivity of H. pylori ZJC03 to antibiotics: 0.023 µg/mL

## CC(O)C(=O)O (stereo not shown) [lactic acid]
H. pylori ZJC03 [2]; 10 mg/mL solution
  Inhibition zone diameter: no visible inhibition zone

## O=C(O)C(O)Cc1ccccc1 (stereo not shown) [phenyllactic acid, Phenyllactic acid]
[3]
  H&E histopathology of gastric mucosa: the tissue structure was substantially normal; also recorded: inflammatory cells basically disappeared
[4]; at 0.25 MIC
  inhibitory effect on urease activity: no significant inhibitory effect
[4]; at 0.5 MIC
  inhibitory effect on urease activity: no significant inhibitory effect
[4]; at 2 MIC
  inhibition rate of urease activity: 80.13%±1.18%
[4]; at the MIC
  inhibition rate of urease activity: 43.01%+2.11% and 43.01%±2.11%
H. pylori ZJC03 [5]; 5-10 min
  bacterial cell morphology, negative-stain transmission electron microscopy: The flagella of the bacterial cells fell off
H. pylori ZJC03 [5]; 4 h
  bacterial cell internal structure, transmission electron microscopy: the cell walls were separated from the cell membranes
  bacterial cell morphology, scanning electron microscopy: most bacterial cells appeared to be disintegrated
[6]
  IFN-γ gene expression in gastric mucosa vs ZH modeling group: significantly decreased; also recorded: significantly reduce
  IL-1β gene expression in gastric mucosa vs ZH modeling group: significantly decreased; also recorded: significantly reduce
  IL-6 gene expression in gastric mucosa vs ZH modeling group: significantly decreased; also recorded: significantly reduce
  IL-10 relative expression level in gastric mucosa vs ZH modeling group: increased without a statistical difference
H. pylori [7]; MIC, 48 h, 72 h, 96 h and 120 h
  growth of H. pylori (growth curve, OD560): completely inhibited; also recorded: significantly inhibited
H. pylori [7]; ¼ MIC
  growth of H. pylori (growth curve, OD560): a certain bactericidal effect
H. pylori [7]; ½ MIC, 48 h, 72 h, 96 h and 120 h
  growth of H. pylori (growth curve, OD560): significantly inhibited
H. pylori [7]; ⅛ MIC
  growth of H. pylori (growth curve, OD560): basically not inhibited
H. pylori ZJC03 [2]; 1.25 mg/mL solution
  Inhibition zone diameter: no inhibition zone
H. pylori ZJC03 [2]; 2.5 mg/mL solution
  Inhibition zone diameter: 6.94 ± 0.95 mm
H. pylori ZJC03 [2]; 5 mg/mL solution
  Inhibition zone diameter: 7.51 ± 0.74 mm
H. pylori ZJC03 [2]; 10 mg/mL solution
  Inhibition zone diameter: 9.98±0.97 mm
H. pylori ZJC03 [2]; 20 mg/mL solution
  Inhibition zone diameter: 12.41 ± 0.14 mm
H. pylori ZJC03 [2]; 40 mg/mL solution
  Inhibition zone diameter: 15.35 ± 0.94 mm
Mouse gastric flora; ZP group compared with ZA group
  effect on the diversity of the gastric flora: no significant effect
Mouse gastric flora; after 4 weeks of treatment
  decrease of relative abundance of Helicobacter pylori compared with ZH group: 9.46%
  gastric flora with significant increases at the genus level (LEfSe, LDA>3): Prevotella, Lactobacillus, Faecalibaculum, Olsenella, Aerococcus
Mouse gastric flora; [9]
  Chao1 (alpha diversity): 464.56
  Observed species (alpha diversity): 453.6
  Shannon (alpha diversity): 6.139
  Simpson (alpha diversity): 0.9287
Mouse gastric flora; genus level
  Helicobacter in the stomach: significantly inhibit
  content / growth of Lactobacillus in the stomach: improved; also recorded: significantly promote the growth
  relative abundance of Lactobacillus in gastric microbiota: 22.39%
Mouse gastric flora; phylum level
  proportion of Proteobacteria in gastric flora vs ZH group: significantly decreased
  ratio of Bacteroides to Firmicutes in gastric flora: increased
H. pylori [8]
  minimum inhibitory concentration (MIC): 2500 µg/mL (≈ 15 mM)

— patent US20250161249A1, “USE OF PHENYLLACTIC ACID IN INHIBITING HELICOBACTER PYLORI INFECTION” (Zhejiang Gongshang University, priority 2022, published 2025)
